Reference: US20250152605A1, “METHOD AND DRUG FOR TREATING NEURONAL CEROID LIPOFUSCINOSIS” (priority 2021, published 2025)
Entries after “also recorded” stand apart in the source; their conditions may differ.

Columns and labels:
[1] = system: CLN3^Δex7/8 human neurons; experiment: qRT-PCR of autophagy-related and lysosomal genes in human neurons; format: cell-based; settings: 6 hours
Procedure: (§1) The cells in the cell-culture dish were collected, extracted using AxyPrep Total RNA Mini Prep Kit or Qiagen AxyPrep Total RNA Mini Prep Kit, and the extracted RNA concentration is measured using Nanodrop; the extracted mRNA was reverse transcribed into cDNA by Transgen's EasyScript® One-Step gDNA Removal and cDNA Synthesis SuperMix and the primers used for reverse transcription were Oligo dT primers; the completion of reverse transcription followed by qRT-PCR reaction through PerfectStart™ Green qPCR SuperMix to detect the expression of the target gene; the qRT-PCR reaction was performed on the Bio-Rad CFX96 Real-Time PCR system; see Table 2 and Table 3 for the 20 μL qRT-PCR reaction system and reaction procedures; data analysis was performed in Prism 7 software using the 2^−ΔΔCt process with GAPDH as internal reference for relative quantification of the expression of the target gene.
(§2) The effect of Compound G on the transcription level of the autophagy-related genes and the lysosomal genes was further detected in the induced CLN3^Δex7/8 human neural stem cells and neurons.

Cln3 KO mice = experiment: Open field test; format: in vivo, mouse; settings: 4-5 months old Cln3 KO mice, within 10 minutes
Procedure: Open field tests were conducted on mice using blue boxes measuring 50 cm×50 cm×40 cm, with specific steps as follows: the mice to be tested were kept in single cages for more than 1 week to adapt to the environment; the central 25 cm×25 cm area of the box was divided into a central area. The mice were placed gently in the central area facing away from the experimenter, and the video device was started to record the movement track of the mice within 10 minutes; the boxes were thoroughly wiped twice with 75% ethanol to eliminate the odor of the mouse, and then the next mouse was placed for movement track record within 10 minutes; the movement track of mice was analyzed with the Noldus software, and the analysis indicators included the movement speed and total movement distance of mice. The number of times the mice stood upright on their hind legs within 10 minutes was manually counted by the experimenter.
[…] experiments were conducted on 4-5 months old wild-type mice, Cln3 KO mice, and Compound G-treated Cln3 KO mice. The mouse was gently placed in the mine field, it was allowed to move freely, and the route, distance and speed of its movement within 10 minutes were recorded.

[2] = system: APP-gene mutant human neurons; experiment: Human neuron model of Alzheimer's dementia (Aβ immunofluorescence, Aβ42 ELISA); format: cell-based
Text: FIG. 44: Compound G reduced Aβ protein storage and secretion levels of toxic Aβ42 in APP mutant neurons. (a) Immunofluorescence staining, for detecting Compound G-treated APP mutant neurons for abnormal accumulation of Aβ protein and (b) statistics of Aβ plaque area, and the scale bar was 50 μm. (c) ELISA tests, for measuring the effect of Compound G on the secretion level of toxic Aβ42 of APP mutant neurons.
The present disclosure detected the therapeutic effect of the treatment of Compound G on Alzheimer's dementia. We directed the differentiation of human embryonic stem cells with mutations in APP gene into human neurons in vitro and constructed an in vitro human neuron model of Alzheimer's dementia.

[3] = system: CLN3^Δex7/8 human neural stem cells; experiment: qRT-PCR of autophagy-related and lysosomal genes in human neural stem cells; format: cell-based; settings: 6 hours
Procedure: as §1, §2

[4] = system: CLN3^Δex7/8 neural stem cells; experiment: Immunofluorescence staining of neural stem cell lineage markers; format: cell-based, human; settings: 48 hours of treatment
Procedure: Fixation: the cell medium was aspirated and the cells were washed once with dPBS, then 4% paraformaldehyde solution was added to fix the cells, which were then incubated at room temperature for 20 min and washed 3 times with dPBS for 5 min each; blocking and permeabilization: blocking solution (5% BSA and 0.3% Trinton-X100 dissolved in dPBS) was added, incubation at room temperature for 1 hour followed by washing with dPBS 3 times for 5 minutes each; primary antibody incubation: the antibody was diluted with dPBS containing 5% BSA according to the specification, incubated overnight at 4° C. or 2 hours at room temperature, and washed 3 times with dPBS for 5 minutes each; secondary antibody incubation: the secondary antibody of the corresponding species was diluted with dPBS containing 5% BSA at a ratio of 1:1000, incubated at room temperature for 1 hour, and then washed with dPBS 3 times for 5 minutes each; nuclear staining: DAPI was diluted to 100 ng/ml with dPBS, incubated at room temperature for 5 minutes, and washed 3 times with dPBS for 5 minutes each; imaging: imaging was performed using Olympus IX83 Inverted Motorized Microscope or Opera Phenix™ High Content Screening System.
After 48 hours of treatment of CLN3^Δex7/8 neural stem cells with Compound G, immunofluorescence staining was performed for the neural stem cell lineage markers SOX1, PAX6 and NESTIN.

CLN3^Δex7/8 neurons = experiment: Mitochondrial morphology with OMP25-GFP, laser confocal microscope; format: cell-based, human
Text: Studies have shown that healthy mitochondria have a short stick-like morphology, with large potential differences across the mitochondrial membrane, which allows efficient generation of ATP that maintains normal cellular function. Damaged mitochondria undergo the process of mitochondrial fission, in which the mitochondria split into a punctate morphology, encapsulated by autophagosome, and transported into lysosomes for degradation. To detect the presence of abnormal mitochondrial morphology in CLN3^Δex7/8 human neurons, a Lentivirus plasmid with green fluorescent protein labeled OMP25 was constructed and used to infect wild-type and CLN3^Δex7/8 human neurons
To test the effect of compound G on mitochondrial homeostasis in CLN3^Δex7/8 neurons, fluorescently labeled mitochondrial outer membrane protein OMP25-GFP was overexpressed in neurons, and the morphological changes of mitochondria were observed by laser confocal microscope. […] The amount of ATP generation in the same number of neurons was tested using Cell Titer Glo reagent.

[5] = system: CLN3^Δex7/8 neural stem cells; experiment: Differentiation of CLN3^Δex7/8 neural stem cells into neurons; format: cell-based, human; settings: after 17 days of differentiation
Procedure: When the density of human induced neural stem cells reached 85-95%, passage was performed at 1:20-1:50 according to the above method. The medium on the day of passage (recorded as Day 1 of differentiation) was human neural stem cell maintenance medium with 10 μM Y27632, which was removed after 24 h, and culture continued in human neural stem cell maintenance medium for 48 hours. On Day 4 of differentiation, the medium was changed to human neuronal differentiation medium (human neuronal medium: DMEM/F12 medium+10 ng/ml hBDNF+10 ng/ml hGDNF+300 ng/mL cAMP+0.2 mM vitamin C+1×N2+1×B27+1% Penicillin/Streptomycin), with medium change halfly every other day. Human neurons highly expressing MAP2 and TUJ1 proteins were obtained on Day 17 of differentiation. Thereafter, the human neurons could be continuously cultured in the human neuron differentiation medium, with medium change halfly every other day.
Starting from the same number of human neural stem cells induced to differentiate into human neurons, CLN3^Δex7/8 neural stem cells eventually generated a lower number of neurons than wild-type cells. During the process of neurons differentiation, the seven small molecule compounds obtained above were each added to the culture medium and observed for their effects on the differentiation process of CLN3^Δex7/8 neural stem cells into neurons.

C/C=C1\C(=O)C[C@H]2[C@@H]3CCC4=CC(=O)CC[C@]4(C)[C@H]3CC[C@]12C [Compound G, (Z)-guggulsterone]
expression of the autophagy-related genes or the lysosomal genes overall [1]: did not significantly increase
distance of the movement in the field (Cln3 KO mice): improve the distance and the speed of the movement
speed of the movement in the field (Cln3 KO mice): improve the distance and the speed of the movement
deposition of Aβ plaques [2]: significant reduction
level of toxic Aβ42 secreted by the cells into the culture medium ([2]; ELISA): significant reduction
transcription level of the autophagy-related genes or the lysosomal genes [3]: did not significantly increase
neural stem cell lineage markers SOX1, PAX6 and NESTIN (cell fate) [4]: maintained the characteristics of SOX1, PAX6 and NESTIN positive
damaged punctate mitochondria (CLN3^Δex7/8 neurons): significantly reduce the occurrence of damaged punctate mitochondria; also recorded: significantly reduce the appearance of the damaged mitochondria
MAP2 and TUJ1-positive neurons generated from the same number of cells [5]: generate more MAP2 and TUJ1-positive neurons
